Results reported in PubChem BioAssay AID2202558 (NIEHS Division of Translational Toxicology (DTT)).
Records with an inconclusive call do not appear. Activity calls are given as the source filed them. The rule behind the calls is not given here. Where a SMILES comes first, the peptide text is derived from it.

Tested on: mouse/rat in vivo micronucleus assay, summary call
Experiment: In vivo micronucleus assay summary data
Description: The erythrocyte micronucleus test examines the ability of substances to cause chromosome damage in developing red blood cells inside bone marrow. A micronucleus (literally, "little nucleus") is a biomarker of structural chromosome damage (e.g., breaks) and changes in chromosome number (e.g., chromosome loss). If a chromosome is broken or fails to migrate properly with other chromosomes during cell division, the broken piece or lost chromosome will form a small (micro) nucleus of its own in one of the two daughter cells produced. Detection of chromosomal damage is important because it has been linked to birth defects, infertility, and certain diseases, including cancer.
The micronucleus test is performed in rapidly dividing cell populations, and bone marrow is a site of rapid blood cell division. Both bone marrow and peripheral blood samples can be examined for the presence of micronuclei in red blood cells.
Animals are treated with a test substance once or daily over a period of time, and the frequency of micronucleated cells is determined 24-48 hours after the final treatment, depending on the source of the cells (bone marrow or blood) that are examined and the treatment regimen.
The test subjects are rodents (rats or mice) that are exposed to the test substance, usually by oral gavage or injection. Typically, one to three daily treatments of the test substance are administered over a range of doses; the highest dose tested is near the maximum tolerated dose. Groups of negative and positive control animals are included for each test. Bone marrow samples are obtained from all animals 24 hours after the last treatment, and red blood cells are examined for the presence of micronuclei.
B. Peripheral Blood Tests
Micronucleus tests are performed on male and female rodents that are exposed to the test substance orally, dermally, or by inhalation in subchronic (e.g., 28 or 90 days) or short term (e.g., 48-72 hours) toxicity studies. 24 to 48 hours after the final exposure, peripheral blood samples are obtained and red blood cells are examined for the presence of micronuclei. Samples may be examined using standard slide scoring procedures or automated flow cytometric approaches. Since 2007, NTP has routinely relied on flow cytometry to evaluate the frequency of micronucleated cells in peripheral blood.
Peripheral blood micronucleus assays are typically integrated into all NTP toxicity studies, and they also lend themselves to serial monitoring of micronucleus frequencies over time, since blood samples can be obtained without the need to sacrifice the animals.
Blood or bone marrow samples from treated animals are compared to samples from untreated animals. With the slide-based approach for data acquisition, 1000-2000 cells were scored per animal. Using flow cytometric procedures to evaluate blood samples, 20,000 immature red blood cells and around one million mature red blood cells are examined per animal, resulting in a marked increase in the ability to detect small changes in the frequency of micronucleated red blood cells. The data is analyzed using statistical methods to determine if there is a significant increase in the frequency of cells containing micronuclei. Both dose-related responses and the magnitude of response for each independent dose group are considered during the evaluation of the data. For a positive test, both a significant dose response (trend) and at least one significant dose group are required. If only one of these measures is present, the test is determined to be questionable. The absence of either condition results in a negative test. The final conclusions for micronucleus tests are determined by considering the results of statistical analyses, reproducibility of any observed effects, and the magnitude of the effects. Ultimately, both the biological significance as well as statistical significance is considered when reaching a final conclusion.
[…]

Compound	outcome
O=C1OC(c2ccc(O)cc2)(c2ccc(O)cc2)c2ccccc21	active; positive
CCN(N=O)C(N)=O	active; positive
C=CC(N)=O	active; positive
Nc1ncnc2c1ncn2[C@H]1CC[C@@H](CO)O1	active; positive
Oc1cccc(O)c1	active; positive
C1CN1c1nc(N2CC2)nc(N2CC2)n1	active; positive
Oc1ccc(/C=C/c2cc(O)cc(O)c2)cc1	inactive; negative
O=C(O)CS	active; positive
COc1ccc2nc(N)sc2c1	active; positive
C1CCC2CCCCC2C1 (stereo unspecified)	active; weakly positive
Nc1ccc(-c2ccccc2)cc1	active; positive
Nc1ccc(Cl)cc1	active; positive
CC[n+]1c(-c2ccccc2)c2cc(N)ccc2c2ccc(N)cc21	inactive; negative
C(=NC1CCCCC1)=NC1CCCCC1	active; weakly positive
ClC=CCCl	active; positive
NC(=O)c1ncn([C@@H]2O[C@H](CO)[C@@H](O)[C@H]2O)n1	active; positive
COC(=O)[C@H](Cc1ccccc1)NC(=O)[C@@H](N)CC(=O)O (H-Asp-Phe-OMe)	active; positive
Nc1ccc(Cl)cc1N	active; positive
C[C@H](Cn1cnc2c(N)ncnc21)OCP(=O)(O)O	active; positive
Oc1ccc(O)cc1	active; positive
ClC(Cl)Cl	active; positive
CC/C(=C(/CC)c1ccc(O)cc1)c1ccc(O)cc1	active; positive
C=COC(C)=O	active
ClC(Cl)C(Cl)Cl	active; positive
CC(C)C=O	inactive; negative
C=CC=C	active; positive (nonstandard protocol)

Compound	outcome
Cc1cn([C@H]2C[C@H](N=[N+]=[N-])[C@@H](CO)O2)c(=O)[nH]c1=O	active; positive
CC(=O)C(C)O (stereo unspecified)	inactive; negative
Cc1ccccc1N	active; negative
CC(C)c1ccccc1	active; negative
C[C@]12CC[C@@H]3c4ccc(O)cc4CC[C@H]3[C@@H]1CC[C@@H]2O	inactive; negative
CC(C)(C)c1ccc(O)c(O)c1	inactive; negative
Brc1c(Br)c(Br)c(Oc2c(Br)c(Br)c(Br)c(Br)c2Br)c(Br)c1Br	active
Nc1nc(=S)c2[nH]cnc2[nH]1	active; positive
CC(C)CON=O	active; positive
CC1=CC(=O)NS(=O)(=O)O1	active; positive
O=CC=CC=Cc1ccc([N+](=O)[O-])cc1	active; positive (nonstandard protocol)
CC1C(=O)C[C@]2(C(C)C)C[C@H]12 (stereo partly specified)	active; positive
CCCC[N+]1(C)CCCC1	active; negative
CN(N=O)C(N)=O	active; positive
O=C(O)C(Br)Br	active; positive
CCn1cc[n+](C)c1	inactive; negative
CN(C)c1ccc(C(c2ccccc2)c2ccc(N(C)C)cc2)cc1	active; positive
CC(O)COC(C)(C)C (stereo unspecified)	active; weakly positive
Nc1ccc(Oc2ccc(N)cc2)cc1	active; positive
Nc1ccn([C@@H]2O[C@H](CO)[C@@H](O)[C@@H]2O)c(=O)n1	active; positive
O=NO	inactive; negative
CS(=O)(=O)OC[C@H](O)[C@@H](O)COS(C)(=O)=O	active; positive
COC(=O)c1ccccc1C(=O)OC	inactive; negative
NC(=O)NO	active; positive
N[C@@H](Cc1ccc(N(CCCl)CCCl)cc1)C(=O)O	active; positive
O=S(=O)(O)C(F)(F)C(F)(F)C(F)(F)C(F)(F)C(F)(F)C(F)(F)C(F)(F)C(F)(F)F	active

Compound	outcome
C=CC(=O)NCNC(=O)C=C	active; positive
CC(=O)CC(C)=O	active; positive
Cc1c(N)cccc1N	active; positive
O=P1(N(CCCl)CCCl)NCCCO1 (stereo unspecified)	active; positive
CCCCCC=CC=CC=O	active; equivocal
C=CCOC(C)=O	active; weakly positive
C=CCc1cc(OC)c2c(c1)OCO2	active; negative
O[C@@H]([C@H](O)[C@H](O)CBr)[C@H](O)CBr	active; positive
c12c3c4c5c1c1c6c7c2c2c8c3c3c9c4c4c%10c5c5c1c1c6c6c%11c7c2c2c7c8c3c3c8c9c4c4c9c%10c5c5c1c1c6c6c%11c2c2c7c3c3c8c4c4c9c5c1c1c6c2c3c41	inactive; negative
Cn1c(=O)c2[nH]cnc2n(C)c1=O	active; positive
O=C1c2ccccc2C(=O)c2ccccc21	active; positive
C=C(C)c1ccccc1	active; positive
Nc1ccn([C@H]2CC[C@@H](CO)O2)c(=O)n1	active; positive
CC#N	active; positive
O=C(O)c1cc(N=Nc2ccc(S(=O)(=O)Nc3ccccn3)cc2)ccc1O	active; positive
O=S(=O)(c1ccc(Cl)cc1)c1ccc(Cl)cc1	active; positive
CCOC(C)(C)C	inactive; negative
C=CC(=O)CC	inactive; negative
Cc1cccc(Nc2cc(Cl)nc(SCC(=O)O)n2)c1C	inactive; negative
O=S(=O)([O-])[O-].[O]=[V+2]	inactive; negative
CCCC=NO	active; positive
O=S1(=O)CCCC1	inactive; negative
CC(=O)C(C)=O	inactive; negative
O=C1c2cccc(O)c2C(=O)c2c(O)cccc21	inactive; negative
ClCCOCOCCCl	inactive; negative
Cc1c2ccccc2c(C)c2c1ccc1ccccc12	active; positive

Compound	outcome
CC[C@]1(O)C[C@H]2CN(CCc3c([nH]c4ccccc34)[C@@](C(=O)OC)(c3cc4c(cc3OC)N(C=O)[C@H]3[C@@](O)(C(=O)OC)[C@H](OC(C)=O)[C@]5(CC)C=CCN6CC[C@]43[C@@H]65)C2)C1	active; positive
Oc1ccccc1	active; positive
CC(=O)C1(C)CC2=C(CCCC2(C)C)CC1C (stereo unspecified)	active; positive
CN(C)C(=O)Nc1ccc(Cl)cc1	active; positive
c1cc(OCC2CO2)cc(OCC2CO2)c1 (stereo unspecified)	active; positive
Nc1ncn([C@@H]2O[C@H](CO)[C@@H](O)[C@H]2O)c(=O)n1	active; positive
CCCCOCCO	inactive; negative
CCCCn1cc[n+](C)c1	inactive; negative
Oc1c(Cl)c(Cl)c(Cl)c(Cl)c1Cl	inactive; negative
CC(C)N=C=NC(C)C	active; positive
CBr	active; positive
CCCCCCc1ccc(O)cc1O	active; positive
O=C(O)C=Cc1ccc(O)c(O)c1	active; positive
C=C(C#N)C(=O)OCC	inactive; negative
CC=Cc1ccc(O)c(OC)c1	active; positive
CO[C@@]12[C@H](COC(N)=O)C3=C(C(=O)C(C)=C(N)C3=O)N1C[C@@H]1N[C@@H]12	active; positive
Nc1cccc(Cl)c1	inactive; negative
COC(=O)C(c1ccccc1)C1CCCCN1 (stereo unspecified)	inactive; negative
O=C1O[C@H]([C@@H](O)CO)C(O)=C1O	active; positive
c1ccccc1	active; positive
C=CC(=C)C	active; positive
Nc1ccc(Cc2ccc(N)cc2)cc1	active; positive (nonstandard protocol)
Cc1ncc[nH]1	active; positive
